Measured values reported in patent US10822327B2, “2-substituted aromatic ring-pyrimidine derivative and preparation and application thereof” (ZHEJIANG UNIVERSITY, priority 2016, dated 2020).
Values belong to the compound of their own block, whether it stands above or below them.

Tests used:
Chk1 protein kinase = target: T1, Chk1 protein kinase (Homo sapiens, UniProt O14757); assay: Chk1 enzyme inhibitory activity, ADP-Glo kit; type: biochemical; settings: bounds, unit μM
T1 sequence (O14757 1-476): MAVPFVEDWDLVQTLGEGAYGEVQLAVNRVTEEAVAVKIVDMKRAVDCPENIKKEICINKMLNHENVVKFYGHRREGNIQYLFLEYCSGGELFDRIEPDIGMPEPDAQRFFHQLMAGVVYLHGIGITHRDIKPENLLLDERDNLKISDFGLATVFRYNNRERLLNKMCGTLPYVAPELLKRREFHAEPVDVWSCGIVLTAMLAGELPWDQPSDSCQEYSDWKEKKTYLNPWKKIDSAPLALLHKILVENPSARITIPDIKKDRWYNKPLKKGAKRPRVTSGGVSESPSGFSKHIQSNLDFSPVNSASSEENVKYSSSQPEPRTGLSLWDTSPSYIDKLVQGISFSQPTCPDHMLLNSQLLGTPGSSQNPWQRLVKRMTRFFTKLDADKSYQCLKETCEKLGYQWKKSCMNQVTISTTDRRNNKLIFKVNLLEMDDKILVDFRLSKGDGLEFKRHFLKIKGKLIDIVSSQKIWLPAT
Experimental: Saurosporine is used as a positive control, the Chk1 enzyme inhibitory activity (IC50) was evaluated using the ADP-Glo kit. […] The phosphorylation process consumes ATP. After the reaction, ADP-Glo™ Reagent consumes the remaining ATP, wherein ADP produced during the reaction can be transformed to ATP by ADP-Glo Detection Reagent. ATP acts as a substrate for the Ultra-Glo™ luciferase catalytic reaction, producing an optical signal. The test compound was dissolved in DMSO to prepare a 10 mM stock solution and diluted to 12 different concentrations in a certain ratio for testing. 1 μL of the test compound and 2 μL of 2.5× Chk1 kinase were added to each well of a 384-well plate, and 2 μL of 1× buffer was added to the control group. After incubation for 10 min at room temperature, 2 μL of 2.5× substrate was added. Ater incubation for 1 h at 37° C., 5 μL. of ADP-Glo™ Reagent was added and the reaction was stopped before incubating again for 1 h at 37° C. 10 μL of ADP-Glo Detection Reagent was added before incubating for 30 min at 37° C., and three parallel wells were set for each sample. […] by luminescence fluorescence microplate reader, and data were calculated using GraphPad Prism 5 software to calculate IC50 values.

[1] = tested on: human multiple myeloma cells RPMI 8226; assay: MTS in vitro proliferation inhibition, RPMI 8226; type: cell-based; settings: 72 hours, average of three experiments, read-out: IC50(μM) RPMI8226
Excerpt: (§1) Cell lines: human multiple myeloma cells RPMI 8226, human mantle cell lymphoma cells Mino, Jeko-1, human lymphoma cells Romas, human acute monocytic leukemia cells MV-4-11, human breast cancer cells MCF-7 Human lung cancer cell A549, human prostate cancer cell LnCAP, human gastric cancer cell BGC-823, human colon cancer cell HCT116, Colo205, and human ovarian cancer cell OVCAR-8. Experimental method: using MTS method for in vitro proliferation Inhibitory activity (IC50) of compounds against different tumor cell lines.
(§2) The cells in the logarithmic growth phase were trypsinized, counted, and seeded at a density of 1×10^4 cells/well in a 96-well plate at 100 μL per well before placing in a 37° C. incubator containing 5% CO2 overnight. Six concentration gradients were set for each compound, and three sets of duplicate wells were set for each concentration. After the addition, the cells were cultured for 72 hours, and 20 μL of MTS was added. After incubating for 2 hours at 37° C., the absorbance at 490 nm (L1) was measured with a SpectraMAX 340 microplate reader. The reference wavelength was 690 nm (L2), and the (L1-L2) value was plotted against the different concentrations of the inhibitor. The half inhibitory concentration IC50 was fitted by the formula.

[2] = tested on: human mantle cell lymphoma cells Mino; assay: MTS in vitro proliferation inhibition, Mino; type: cell-based; settings: 72 hours, average of three experiments
Excerpt: as §1, §2

[3] = tested on: human lymphoma cells Romas; assay: MTS in vitro proliferation inhibition, Romas; type: cell-based; settings: 72 hours, average of three experiments
Excerpt: as §1, §2

[4] = tested on: human mantle cell lymphoma cells Jeko-1; assay: MTS in vitro proliferation inhibition, Jeko-1; type: cell-based; settings: 72 hours, average of three experiments
Excerpt: as §1, §2

[5] = tested on: human acute monocytic leukemia cells MV-4-11; assay: MTS in vitro proliferation inhibition, MV-4-11; type: cell-based; settings: MV4-11, 72 hours, average of three experiments
Excerpt: as §1, §2

[6] = tested on: human breast cancer cells MCF-7; assay: MTS in vitro proliferation inhibition, MCF-7; type: cell-based; settings: MCF7, 72 hours, average of three experiments
Excerpt: as §1, §2

[7] = tested on: Human lung cancer cell A549; assay: MTS in vitro proliferation inhibition, A549; type: cell-based; settings: 72 hours, average of three experiments
Excerpt: as §1, §2

[8] = tested on: human prostate cancer cell LnCAP; assay: MTS in vitro proliferation inhibition, LnCAP; type: cell-based; settings: 72 hours, average of three experiments
Excerpt: as §1, §2

[9] = tested on: human gastric cancer cell BGC-823; assay: MTS in vitro proliferation inhibition, BGC-823; type: cell-based; settings: 72 hours, average of three experiments
Excerpt: as §1, §2

[10] = tested on: human colon cancer cell HCT116; assay: MTS in vitro proliferation inhibition, HCT116; type: cell-based; settings: HCT-116, 72 hours, average of three experiments
Excerpt: as §1, §2

[11] = tested on: human ovarian cancer cell OVCAR-8; assay: MTS in vitro proliferation inhibition, OVCAR-8; type: cell-based; settings: 72 hours, average of three experiments
Excerpt: as §1, §2

[12] = tested on: human colon cancer cell Colo205; assay: MTS in vitro proliferation inhibition, Colo205; type: cell-based; settings: COLO 205, 72 hours, average of three experiments
Excerpt: as §1, §2

IC50 (Chk1 protein kinase): > 10 µM
Compound: Cc1cc(Nc2ncc(-c3cnn(C)c3)c(NC3CCNCC3)n2)n[nH]1 [Compound 1, 5-(1-methyl-1H-pyrazol-4-yl)-N^2-(3-methylpyrazol-5-yl)-N^4-(piperidin-4-yl)-2,4-diaminopyrimidine]

IC50 (Chk1 protein kinase): > 10 µM
Compound: Cc1cc(Nc2ncc(-c3cnn(C)c3)c(NC3CCNCC3)n2)no1 [Compound 2, 5-(1-methyl-1H-pyrazol-4-yl)-N^2-(5-methyloxazol-3-yl)-N^4-(piperidin-4-yl)-2,4-diaminopyrimidine]

IC50 (Chk1 protein kinase): > 10 µM
Compound: Cc1cc(Nc2ncc(-c3cccs3)c(NC3CCNCC3)n2)n[nH]1 [Compound 3, 5-(thien-2-yl)-N^2-(5-methylpyrazol-3-yl)-N^4-(piperidin-4-yl)-2,4-diaminopyrimidine]

IC50 (Chk1 protein kinase): > 10 µM
Compound: Cc1cc(Nc2ncc(-c3cccs3)c(NC3CCNCC3)n2)no1 [Compound 4, 5-(thien-2-yl)-N^2-(5-methyloxazol-3-yl)-N^4-(piperidin-4-yl)-2,4-diaminopyrimidine]

IC50 (Chk1 protein kinase): > 10 µM
Compound: Cc1cc(Nc2ncc(-c3ccco3)c(NC3CCNCC3)n2)n[nH]1 [Compound 5, 5-(furan-2-yl)-N^2-(5-methylpyrazol-3-yl)-N^4-(piperidin-4-yl)-2,4-diaminopyrimidine]

IC50 (Chk1 protein kinase): > 10 µM
Compound: Cc1cc(Nc2ncc(-c3ccco3)c(NC3CCNCC3)n2)no1 [Compound 6, 5-(furan-2-yl)-N^2-(5-methyloxazol-3-yl)-N^4-(piperidin-4-yl)-2,4-diaminopyrimidine]

IC50 [1]: 3.34 µM | IC50 [2]: 0.708 µM | IC50 [3]: 0.536 µM | IC50 [4]: 0.342 µM | IC50 [5]: 0.044 µM | IC50 [6]: 1.8 µM | IC50 [7]: 0.774 µM | IC50 [8]: 1.44 µM | IC50 [9]: 3.17 µM | IC50 [10]: 2.68 µM | IC50 [11]: 4.71 µM | IC50 [12]: 2.77 µM
Compound: N#Cc1ccc(Nc2ncc(-c3ccco3)c(NC3CCNCC3)n2)cn1 [Compound 17, 5-(furan-2-yl)-N^2-(2-cyanopyridin-5-yl)-N^4-(piperidin-4-yl)-2,4-diaminopyrimidine]

IC50 [1]: 3.6 µM | IC50 [2]: 0.608 µM | IC50 [3]: 0.401 µM | IC50 [4]: 0.253 µM | IC50 [5]: 0.035 µM | IC50 [6]: 2.56 µM | IC50 [7]: 1.02 µM | IC50 [8]: 0.842 µM | IC50 [9]: 2.11 µM | IC50 [10]: 1.39 µM | IC50 [11]: 3.24 µM | IC50 [12]: 1.54 µM
Compound: Cn1cc(-c2cnc(Nc3ccc(C#N)nc3)nc2N[C@H]2CCCNC2)cn1 [Compound 21, (S)-5-(1-methyl-1H-pyrazol-4-yl)-N^2-(2-cyanopyridin-5-yl)-N^4-(piperidin-3-yl)-2,4-diaminopyrimidine]

IC50 (Chk1 protein kinase): > 10 µM
Compound: Cn1cc(-c2cnc(Nc3ccc(C#N)cn3)nc2NC2CCNCC2)cn1 [Compound 26, 5-(1-methyl-1H-pyrazol-4-yl)-N^2-(3-cyanopyridin-6-yl)-N^4-(piperidin-4-yl)-2,4-diaminopyrimidine]

IC50 (Chk1 protein kinase): > 10 µM
Compound: Cn1cc(-c2cnc(Nc3cnc(C#N)cn3)nc2NC2CCNCC2)cn1 [Compound 27, 5-(1-methyl-1H-pyrazol-4-yl)-N^2-(2-cyanopyrazin-5-yl)-N^4-(piperidin-4-yl)-2,4-diaminopyrimidine]

IC50 (Chk1 protein kinase): > 10 µM
Compound: N#Cc1ccc(Nc2ncc(Br)cn2)cn1 [Compound 30, 5-bromo-N-(2-cyanopyridin-5-yl)-2-aminopyrimidine]

IC50 (Chk1 protein kinase): > 10 µM
Compound: N#Cc1ccc(Nc2ncc(-c3ccccc3N)cn2)cn1 [Compound 31, 5-(2-aminophenyl)-N-(2-cyanopyridin-5-yl)-2-aminopyrimidine]

IC50 (Chk1 protein kinase): > 10 µM
Compound: N#Cc1ccc(Nc2ncc(-c3ccccc3NCC3CCNCC3)cn2)cn1 [Compound 33, 5-(2-(piperidin-4-methyl)aminophenyl)-N-(2-cyanopyridin-5-yl)-2-aminopyrimidine]

IC50 (Chk1 protein kinase): < 1 µM
Compound: N#Cc1ccc(Nc2ncc(C(F)(F)F)c(NCC3CCNCC3)n2)cn1 [Compound 34, 5-trifluoromethyl-N^2-(2-cyanopyridin-5-yl)-N^4-(piperidin-4-methyl)-2,4-diaminopyrimidine]

IC50 (Chk1 protein kinase): < 1 µM
Compound: N#Cc1ccc(Nc2ncc(C(F)(F)F)c(NC3CCNCC3)n2)cn1 [Compound 35, 5-trifluoromethyl-N^2-(2-cyanopyridin-5-yl)-N^4-(piperidin-4-yl)-2,4-diaminopyrimidine]

IC50 (Chk1 protein kinase): < 1 µM
Compound: N#Cc1ccc(Nc2ncc(C(F)(F)F)c(N[C@@H]3CCCNC3)n2)cn1 [Compound 36, (R)-5-trifluoromethyl-N^2-(2-cyanopyridin-5-yl)-N^4-(piperidin-3-yl)-2,4-diaminopyrimidine]
